From PubChem BioAssay (NCI)
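These data come from cells grown in 96-well plates and exposed to compound for 48 hours at five concentrations. TGI is the concentration that stops growth completely.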

Experiments:
Assay in all cases: NCI tumour cell line growth inhibition, 48 h
786-0 renal = test system: 786-0 renal
A549 NSCLC = test system: A549 NSCLC
ACHN renal = test system: ACHN renal
BT-549 breast = test system: BT-549 breast
CAKI-1 renal = test system: CAKI-1 renal
CCRF-CEM leukemia = test system: CCRF-CEM leukemia
COLO 205 colon = test system: COLO 205 colon
DU-145 prostate = test system: DU-145 prostate
EKVX NSCLC = test system: EKVX NSCLC
HCC-2998 colon = test system: HCC-2998 colon
HCT-116 colon = test system: HCT-116 colon
HCT-15 colon = test system: HCT-15 colon
HL-60(TB) leukemia = test system: HL-60(TB) leukemia
HOP-62 NSCLC = test system: HOP-62 NSCLC
HS 578T breast = test system: HS 578T breast
HT29 colon = test system: HT29 colon
IGROV1 ovarian = test system: IGROV1 ovarian
K-562 leukemia = test system: K-562 leukemia
KM12 colon = test system: KM12 colon
LOX IMVI melanoma = test system: LOX IMVI melanoma
M14 melanoma = test system: M14 melanoma
MALME-3M melanoma = test system: MALME-3M melanoma
MCF7 breast = test system: MCF7 breast
MDA-MB-231 breast = test system: MDA-MB-231 breast
MDA-MB-435 = test system: MDA-MB-435
MDA-N = test system: MDA-N
MOLT-4 leukemia = test system: MOLT-4 leukemia
NCI-H226 lung = test system: NCI-H226 lung
NCI-H23 lung = test system: NCI-H23 lung
NCI-H460 lung = test system: NCI-H460 lung
NCI-H522 lung = test system: NCI-H522 lung
NCI/ADR-RES ovarian = test system: NCI/ADR-RES ovarian
OVCAR-3 ovarian = test system: OVCAR-3 ovarian
OVCAR-4 ovarian = test system: OVCAR-4 ovarian
OVCAR-5 ovarian = test system: OVCAR-5 ovarian
OVCAR-8 ovarian = test system: OVCAR-8 ovarian
PC-3 prostate = test system: PC-3 prostate
RPMI-8226 leukemia = test system: RPMI-8226 leukemia
RXF 393 renal = test system: RXF 393 renal
SF-268 CNS = test system: SF-268 CNS
SF-295 CNS = test system: SF-295 CNS
SF-539 CNS = test system: SF-539 CNS
SK-MEL-2 melanoma = test system: SK-MEL-2 melanoma
SK-MEL-28 melanoma = test system: SK-MEL-28 melanoma
SK-MEL-5 melanoma = test system: SK-MEL-5 melanoma
SK-OV-3 ovarian = test system: SK-OV-3 ovarian
SN12C renal = test system: SN12C renal
SNB-19 CNS = test system: SNB-19 CNS
SNB-75 CNS = test system: SNB-75 CNS
SR leukemia = test system: SR leukemia
SW-620 colon = test system: SW-620 colon
T-47D breast = test system: T-47D breast
TK-10 renal = test system: TK-10 renal
U251 CNS = test system: U251 CNS
UACC-257 melanoma = test system: UACC-257 melanoma
UACC-62 melanoma = test system: UACC-62 melanoma
UO-31 renal = test system: UO-31 renal
A498 renal = test system: A498 renal
HOP-92 NSCLC = test system: HOP-92 NSCLC

With `COc1cc(Nc2nc3ccc(C(F)(F)F)cc3nc2C(=O)O)cc(OC)c1OC` the TGI (786-0 renal) was 74.6 µM, the TGI (A549 NSCLC) was over 100 µM and the TGI (ACHN renal) was 51.5 µM. For the same molecule, the TGI (BT-549 breast) was 37.9 µM, the TGI (CAKI-1 renal) was 61.7 µM and the TGI (CCRF-CEM leukemia) was over 100 µM. The TGI (COLO 205 colon) was 34.6 µM, the TGI (DU-145 prostate) was 80.6 µM and the TGI (EKVX NSCLC) was 97.2 µM. For the same molecule, the TGI (HCC-2998 colon) was 34.5 µM, the TGI (HCT-116 colon) was 34.9 µM and the TGI (HCT-15 colon) was 35.3 µM. The TGI (HL-60(TB) leukemia) was over 100 µM, the TGI (HOP-62 NSCLC) was 48.2 µM and the TGI (HS 578T breast) was 54.8 µM. For the same molecule, the TGI (HT29 colon) was 63.3 µM, the TGI (IGROV1 ovarian) was 66.6 µM and the TGI (K-562 leukemia) was over 100 µM. The TGI (KM12 colon) was 59.4 µM, the TGI (LOX IMVI melanoma) was 35.6 µM and the TGI (M14 melanoma) was 93.3 µM. For the same molecule, the TGI (MALME-3M melanoma) was 88.8 µM, the TGI (MCF7 breast) was over 100 µM and the TGI (MDA-MB-231 breast) was 53.9 µM. For the same molecule, the TGI (MDA-MB-435) was 71.1 µM, the TGI (MDA-N) was 46.8 µM and the TGI (MOLT-4 leukemia) was over 100 µM. For the same molecule, the TGI (NCI-H226 lung) was 40.6 µM, the TGI (NCI-H23 lung) was 45.5 µM and the TGI (NCI-H460 lung) was 48.4 µM. It also gave a TGI (NCI-H522 lung) of 51.8 µM, a TGI (NCI/ADR-RES ovarian) of 45.5 µM and a TGI (OVCAR-3 ovarian) of 93.5 µM. The TGI (OVCAR-4 ovarian) was 52.6 µM, the TGI (OVCAR-5 ovarian) was over 100 µM and the TGI (OVCAR-8 ovarian) was 72.1 µM. It also gave a TGI (PC-3 prostate) of 56.1 µM, a TGI (RPMI-8226 leukemia) of 91.3 µM and a TGI (RXF 393 renal) of 54 µM. For the same molecule, the TGI (SF-268 CNS) was 46.8 µM, the TGI (SF-295 CNS) was 81.9 µM and the TGI (SF-539 CNS) was 86.5 µM. It also gave a TGI (SK-MEL-2 melanoma) of 45.3 µM, a TGI (SK-MEL-28 melanoma) of 80.3 µM and a TGI (SK-MEL-5 melanoma) of over 100 µM. For the same molecule, the TGI (SK-OV-3 ovarian) was over 100 µM, the TGI (SN12C renal) was 38.1 µM and the TGI (SNB-19 CNS) was over 100 µM. The TGI (SNB-75 CNS) was over 100 µM, the TGI (SR leukemia) was over 100 µM and the TGI (SW-620 colon) was 59.9 µM. The TGI (T-47D breast) was 78.3 µM, the TGI (TK-10 renal) was 62.2 µM and the TGI (U251 CNS) was 36.7 µM. It also gave a TGI (UACC-257 melanoma) of 43 µM, a TGI (UACC-62 melanoma) of 38.2 µM and a TGI (UO-31 renal) of 33.8 µM.
For `CC(=O)C1(N=Nc2ccc(S(N)(=O)=O)cc2)CCOC1=O` (configuration not stated), the TGI (786-0 renal) was over 100 µM, the TGI (A498 renal) was over 100 µM and the TGI (A549 NSCLC) was over 100 µM. The TGI (ACHN renal) was over 100 µM, the TGI (BT-549 breast) was over 100 µM and the TGI (CAKI-1 renal) was over 100 µM. For the same molecule, the TGI (CCRF-CEM leukemia) was over 100 µM, the TGI (COLO 205 colon) was over 100 µM and the TGI (DU-145 prostate) was over 100 µM. It also gave a TGI (EKVX NSCLC) of over 100 µM, a TGI (HCT-116 colon) of over 100 µM and a TGI (HCT-15 colon) of over 100 µM. The TGI (HL-60(TB) leukemia) was over 100 µM, the TGI (HOP-62 NSCLC) was over 100 µM and the TGI (HOP-92 NSCLC) was over 100 µM. For the same molecule, the TGI (HS 578T breast) was over 100 µM, the TGI (HT29 colon) was over 100 µM and the TGI (IGROV1 ovarian) was over 100 µM. The TGI (KM12 colon) was over 100 µM, the TGI (LOX IMVI melanoma) was over 100 µM and the TGI (M14 melanoma) was over 100 µM. For the same molecule, the TGI (MALME-3M melanoma) was over 100 µM, the TGI (MCF7 breast) was over 100 µM and the TGI (MDA-MB-231 breast) was over 100 µM. It also gave a TGI (MDA-MB-435) of over 100 µM, a TGI (MDA-N) of over 100 µM and a TGI (NCI-H226 lung) of over 100 µM. The TGI (NCI-H23 lung) was over 100 µM, the TGI (NCI-H460 lung) was over 100 µM and the TGI (NCI-H522 lung) was over 100 µM. For the same molecule, the TGI (NCI/ADR-RES ovarian) was over 100 µM, the TGI (OVCAR-3 ovarian) was over 100 µM and the TGI (OVCAR-4 ovarian) was over 100 µM. For the same molecule, the TGI (OVCAR-5 ovarian) was over 100 µM, the TGI (OVCAR-8 ovarian) was over 100 µM and the TGI (PC-3 prostate) was over 100 µM. The TGI (RXF 393 renal) was over 100 µM, the TGI (SF-268 CNS) was over 100 µM and the TGI (SF-295 CNS) was over 100 µM. It also gave a TGI (SF-539 CNS) of over 100 µM, a TGI (SK-MEL-2 melanoma) of over 100 µM and a TGI (SK-MEL-28 melanoma) of over 100 µM. The TGI (SK-MEL-5 melanoma) was over 100 µM, the TGI (SK-OV-3 ovarian) was over 100 µM and the TGI (SN12C renal) was over 100 µM. The TGI (SNB-19 CNS) was over 100 µM, the TGI (SNB-75 CNS) was over 100 µM and the TGI (SW-620 colon) was over 100 µM. It also gave a TGI (T-47D breast) of over 100 µM, a TGI (TK-10 renal) of over 100 µM and a TGI (U251 CNS) of over 100 µM. The TGI (UACC-257 melanoma) was over 100 µM, the TGI (UACC-62 melanoma) was over 100 µM and the TGI (UO-31 renal) was over 100 µM.
`C1=NCCNCCNCCN=Cc2ccccc2OCc2cccc(n2)COc2ccccc21` was tested, and the TGI (786-0 renal) was over 100 µM, the TGI (A498 renal) was over 100 µM and the TGI (A549 NSCLC) was over 100 µM. It also gave a TGI (ACHN renal) of 83.4 µM, a TGI (BT-549 breast) of over 100 µM and a TGI (CAKI-1 renal) of over 100 µM. For the same molecule, the TGI (CCRF-CEM leukemia) was 55.1 µM, the TGI (COLO 205 colon) was over 100 µM and the TGI (DU-145 prostate) was over 100 µM. For the same molecule, the TGI (EKVX NSCLC) was over 100 µM, the TGI (HCT-116 colon) was over 100 µM and the TGI (HCT-15 colon) was over 100 µM. The TGI (HL-60(TB) leukemia) was 73.7 µM, the TGI (HOP-62 NSCLC) was over 100 µM and the TGI (HOP-92 NSCLC) was over 100 µM. It also gave a TGI (HS 578T breast) of over 100 µM, a TGI (HT29 colon) of 51.6 µM and a TGI (IGROV1 ovarian) of over 100 µM. The TGI (K-562 leukemia) was over 100 µM, the TGI (KM12 colon) was over 100 µM and the TGI (M14 melanoma) was over 100 µM. The TGI (MALME-3M melanoma) was over 100 µM, the TGI (MCF7 breast) was over 100 µM and the TGI (MDA-MB-231 breast) was over 100 µM. The TGI (MDA-MB-435) was 30 µM, the TGI (MDA-N) was 45.3 µM and the TGI (MOLT-4 leukemia) was over 100 µM. For the same molecule, the TGI (NCI-H226 lung) was over 100 µM, the TGI (NCI-H23 lung) was over 100 µM and the TGI (NCI-H460 lung) was over 100 µM. The TGI (NCI-H522 lung) was over 100 µM, the TGI (NCI/ADR-RES ovarian) was 60.4 µM and the TGI (OVCAR-3 ovarian) was over 100 µM. The TGI (OVCAR-4 ovarian) was over 100 µM, the TGI (OVCAR-5 ovarian) was over 100 µM and the TGI (OVCAR-8 ovarian) was 84.4 µM. The TGI (PC-3 prostate) was over 100 µM, the TGI (RPMI-8226 leukemia) was over 100 µM and the TGI (RXF 393 renal) was over 100 µM. It also gave a TGI (SF-268 CNS) of over 100 µM, a TGI (SF-295 CNS) of 94 µM and a TGI (SF-539 CNS) of 82.3 µM. For the same molecule, the TGI (SK-MEL-2 melanoma) was over 100 µM, the TGI (SK-MEL-28 melanoma) was over 100 µM and the TGI (SK-MEL-5 melanoma) was over 100 µM. It also gave a TGI (SK-OV-3 ovarian) of over 100 µM, a TGI (SN12C renal) of over 100 µM and a TGI (SNB-19 CNS) of over 100 µM. The TGI (SNB-75 CNS) was over 100 µM, the TGI (SR leukemia) was 88.9 µM and the TGI (SW-620 colon) was over 100 µM. For the same molecule, the TGI (T-47D breast) was over 100 µM, the TGI (U251 CNS) was 66.3 µM and the TGI (UACC-257 melanoma) was over 100 µM. The TGI (UACC-62 melanoma) was over 100 µM and the TGI (UO-31 renal) was over 100 µM.
